“And” between values parts separate entries of the source, which are not always exact repeats. Equal values may be shown once. Read-outs that look alike come from different tables or passages of the source.
Tests used:
human CaSR [1] = molecular target: T1, human CaSR (Homo sapiens, UniProt P41180); experiment: FLIPR-based functional CaSR calcium assay in HCAR cells; type: cell-based; details: for fold improvement in potency toward CaSR compared to evocalcet / fold increase in potency toward CaSR compared to the evocalcet-linker conjugate: FLIPR assay
T1 construct: host or cells: CCL39 hamster lung fibroblasts stably transfected (HCAR), Geneticin selection
T1 sequence (P41180 20-1078): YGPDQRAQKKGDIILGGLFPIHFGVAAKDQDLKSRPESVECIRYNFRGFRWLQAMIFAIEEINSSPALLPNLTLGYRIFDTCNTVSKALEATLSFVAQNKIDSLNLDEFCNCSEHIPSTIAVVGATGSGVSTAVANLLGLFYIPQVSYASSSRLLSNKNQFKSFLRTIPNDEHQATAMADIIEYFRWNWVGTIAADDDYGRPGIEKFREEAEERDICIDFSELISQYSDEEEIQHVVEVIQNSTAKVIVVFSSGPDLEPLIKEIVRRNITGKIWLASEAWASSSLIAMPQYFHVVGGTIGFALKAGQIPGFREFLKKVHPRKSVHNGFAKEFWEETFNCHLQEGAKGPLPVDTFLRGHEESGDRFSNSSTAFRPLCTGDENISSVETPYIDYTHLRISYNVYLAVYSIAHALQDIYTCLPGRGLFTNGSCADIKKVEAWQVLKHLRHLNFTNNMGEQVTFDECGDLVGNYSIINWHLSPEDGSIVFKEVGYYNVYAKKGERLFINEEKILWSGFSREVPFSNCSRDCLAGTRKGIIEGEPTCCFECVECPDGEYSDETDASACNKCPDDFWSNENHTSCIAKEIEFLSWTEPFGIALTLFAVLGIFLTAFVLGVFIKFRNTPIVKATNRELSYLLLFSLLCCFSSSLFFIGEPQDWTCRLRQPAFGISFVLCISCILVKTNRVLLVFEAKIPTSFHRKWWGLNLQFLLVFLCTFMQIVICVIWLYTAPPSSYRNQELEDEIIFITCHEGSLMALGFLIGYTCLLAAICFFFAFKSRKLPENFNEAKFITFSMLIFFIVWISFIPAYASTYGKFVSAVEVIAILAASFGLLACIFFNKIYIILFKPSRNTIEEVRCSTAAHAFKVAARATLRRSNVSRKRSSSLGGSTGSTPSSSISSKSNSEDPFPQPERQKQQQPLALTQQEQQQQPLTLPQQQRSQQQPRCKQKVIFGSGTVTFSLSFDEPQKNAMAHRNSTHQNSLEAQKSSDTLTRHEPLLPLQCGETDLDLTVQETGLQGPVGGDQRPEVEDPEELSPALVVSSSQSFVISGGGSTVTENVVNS
Experimental: (§1) Hamster lung fibroblasts (CCL39, CaSR−) expressing the recombinant human CaSR (HCAR, CaSR+) and nontransected controls were kindly provided by Novartis AG and were kept in standard culturing conditions (37 °C, 5% CO2) in 1/2 DMEM (Roth, 9005.1)—1/2 F-12 (Sigma, N4888–500 mL) media containing 10% FBS. Media for the HCAR cells contained 500 μg/mL Geneticin as a selection antibiotic (Thermo Fisher, 10131035). Upon reaching 90–95% confluence, cells were detached and seeded into 96-well plates (PerkinElmer, 6005182) at a concentration of 35,000 cells per well and were incubated for 24 h before the experiment. For the functional CaSR calcium assay, cells were first washed twice with HBSS medium (Sigma, H6648), and were incubated in HBSS containing 5 μM Fluo-8 AM and 0.1 mM CaCl2 for 30 min at 37 °C. Calcium transients were measured upon addition of 0.5 mM CaCl2 with the FLIPR Tetra high-throughput cellular screening systems using the 470–495 nm LED excitation and 515–575 nm bandpass emission filters. Probe solutions contained 0.5% DMSO and were added to the cells 10 min prior to the measurement. dF/F0 values were calculated as a change in the peak fluorescence value of the transient for the first 200 data points normalized to the background fluorescence of the well. […] Both cells were washed with HBSS medium twice and then incubated for 10 min at 37 °C in HBSS medium containing 0.1% BSA in the presence or absence of 10 μM evocalcet. Upon the removal of media, cells were incubated in various concentrations of EvoSiR4 and EvoSiR6 in HBSS containing 0.1% BSA for 30 min at 37 °C and were subsequently washed 3 times with 0.1% BSA and resuspended in DMSO before the fluorometric measurement. The fluorescence was measured using a Tecan GENios pro microplate reader with the following parameters: λex = 612 nm, λem = 670 nm, gain = 50 AU. Data for the EvoSiR probes and the evocalcet competition is reported as CaSR-specific fluorescence, which was calculated by dividing the absolute fluorescence of the HCAR cells with the absolute fluorescence of the CCL39 cells for each concentration.

human CaSR [2] = molecular target: T1, human CaSR; experiment: CaSR binding affinity estimated from differential fluorescence between HCAR (CaSR+) and CCL39 (CaSR-) cells
Experimental: as §1

human CaSR [3] = molecular target: T1, human CaSR; experiment: In vitro labeling of CaSR expressing (HCAR) and control (CCL39) cells, fluorescence microscopy; type: cell-based; details: for fold increase in skewness of pixel intensity distribution, CaSR+ (HCAR) vs CaSR- (CCL39) cells: 500 nM probe; for fold mean fluorescence difference between CaSR+ and CaSR- cells: 72 h incubation
Experimental: HCAR (CaSR+) and CCL39 (CaSR−) cells were kindly obtained from Novartis AG (Basel, Switzerland) and validated in house. The cells were seeded into μ-slide 18 well plates (ibidi, 81816) at a density of 5000 cells per well and were incubated for 24 h under standard culturing conditions. As our preliminary data indicated considerable nonspecific labeling of dying cells and cellular debris, a viability staining was introduced to ensure probe specificity.[29] Thus, after washing twice with HBSS, cells were incubated in 10 μM Calcein AM solution containing 0.02% Pluronic F-127 and 0.1% DMSO for 45 min at 37 °C. The solution was then removed and washed twice in HBSS before the addition of the HBSS solution containing the SiR probes. All probe solutions were protected from light exposure and contained 0.5% DMSO and various concentrations of BSA depending on the experiment. Incubation with the fluorescent probes was 20 min long, after which a single washing step was introduced with HBSS before imaging. Images of the cells (Calcein: FITC channel, SiR: Cy5 channel) were acquired with a Nikon Eclipse TI2 inverted wide-field fluorescence microscope using a 60× magnification oil immersion objective (Nikon CFI Plan Fluor, 60×, NA = 0.85). For each well, a minimum of 3 images were acquired. For each image, cells were segmented to generate labels on the FITC channel postacquisition using the deep neural network-based Cellpose package in Python 3.9 (model_type: cyto2, diameter: 200, flow_threshold: 0.4).[30] To normalize pixel intensity values across images, for each image, a background value was calculated by taking the average pixel intensity value of the pixels in which no cellular label was present and were negative for the EvoSiR label (triangle thresholding used). For each cell, the skewness of the value distribution and the mean of the Cy5 pixel intensities were calculated. The procedure for evaluating the long-term labeling (72 h) of EvoSiR probes on CCL39 and HCAR cells was similar, with the following modifications: images were retrieved using 10× magnification air objectives (Nikon CFI Plan Fluor 10×, NA = 0.3), in the neural network model, the diameter parameter was set to 30, and only the mean Cy5 pixel intensities per cell object were retrieved.

[4] = EC50, positive allosteric modulation of CaSR activity, HCAR cells, response to addition of 0.5 mM CaCl2, no BSA

Row | Compound | EC50 (human CaSR [1]; [4]) | EC50 (human CaSR [1]; EC50 in 0.1% BSA, 0.1% BSA) [nM] | EC50 (human CaSR [1]; EC50 in 0.5% BSA, 0.5% BSA) [nM] | EC50 (human CaSR [1]; EC50 in 1% BSA, 1% BSA) [nM] | fold improvement in potency toward CaSR compared to evocalcet (human CaSR [1]) [fold] | fold increase in potency toward CaSR compared to the evocalcet-linker conjugate (human CaSR [1]) [fold] | fold reduction in the EC50 value upon washing with HBSS (human CaSR [1]; incubated in 1% BSA, washed with HBSS upon 10 min incubation) [fold] | Kd (human CaSR [2]) [nM] | fold increase in skewness of pixel intensity distribution, CaSR+ (HCAR) vs CaSR- (CCL39) cells (human CaSR [3]; 0.1% BSA) [fold] | concentration above which skewness significantly increased for HCAR compared to CCL39 (human CaSR [3]; 1% BSA) | fold mean fluorescence difference between CaSR+ and CaSR- cells (human CaSR [3]; 50 nM) [fold] | fold mean fluorescence difference between CaSR+ and CaSR- cells (human CaSR [3]; 200 nM) [fold] | concentration at which skewness values saturate (human CaSR [3]; HCAR (CaSR+) cells, 0.1% BSA) [nM] | concentration above which skewness significantly increased for HCAR compared to CCL39 (human CaSR [3]; no BSA and 0.1% BSA) | EC50 (human CaSR [1]; HCAR cells, response to addition of 0.5 mM CaCl2, no BSA, read-out: EC50, positive allosteric modulation of CaSR activity) [nM] | effect of preincubation on CaSR-specific increase in relative fluorescence of EvoSiR probes (human CaSR [2]; 10 μM evocalcet preincubation) | reduction in skewness of pixel intensity distribution of EvoSiR4 labeling by competition (human CaSR [3]; CaSR+ cells preincubated with 0–500 nM evocalcet in 0.1% BSA) [%]
1 | Cc1cc(C(=O)NCCCCNC(=O)Cc2ccc(N3CC[C@H](N[C@H](C)c4cccc5ccccc45)C3)cc2)ccc1C1=C2C=CC(=[N+](C)C)C=C2[Si](C)(C)c2cc(N(C)C)ccc21 [EvoSiR4] | < 45 nM and ~40 nM and 38 nM | 64 ± 12 | 102 ± 34 | 106 ± 42 | 6 | 3 | 10 | 53.6 ± 18.4 | 3.7 | above 2500 nM | 1.3 | 2.5 | 500 | above 500 nM | – | – | –
2 | Cc1cc(C(=O)NCCCCCCNC(=O)Cc2ccc(N3CC[C@H](N[C@H](C)c4cccc5ccccc45)C3)cc2)ccc1C1=C2C=CC(=[N+](C)C)C=C2[Si](C)(C)c2cc(N(C)C)ccc21 [EvoSiR6] | < 45 nM and ~40 nM and 42 nM | – | – | – | 6 | 3 | – | 71 ± 9.56 | 2.3 | – | – | – | – | – | – | – | –
3 | C[C@@H](N[C@H]1CCN(c2ccc(CC(=O)O)cc2)C1)c1cccc2ccccc12 [evocalcet] | – | – | – | – | – | – | – | – | – | – | – | – | – | – | 243 ± 15 | completely abolished | 55

Reference: paper PMC11091967, “Silicon-Rhodamine Functionalized Evocalcet Probes Potently and Selectively Label Calcium Sensing Receptors In Vitro, In Vivo, and Ex Vivo” (ACS Pharmacology & Translational Science, 2024)
